Data: US7049341B2, “N-benzoylureidocinnamic acid derivatives, processes for preparing them and their use” (Aventis Pharma Deutschland GmbH, priority 2002, dated 2006)

Target: T1, Human glycogen phosphorylase a (Homo sapiens, UniProt P06737)
T1 sequence (P06737 1-847): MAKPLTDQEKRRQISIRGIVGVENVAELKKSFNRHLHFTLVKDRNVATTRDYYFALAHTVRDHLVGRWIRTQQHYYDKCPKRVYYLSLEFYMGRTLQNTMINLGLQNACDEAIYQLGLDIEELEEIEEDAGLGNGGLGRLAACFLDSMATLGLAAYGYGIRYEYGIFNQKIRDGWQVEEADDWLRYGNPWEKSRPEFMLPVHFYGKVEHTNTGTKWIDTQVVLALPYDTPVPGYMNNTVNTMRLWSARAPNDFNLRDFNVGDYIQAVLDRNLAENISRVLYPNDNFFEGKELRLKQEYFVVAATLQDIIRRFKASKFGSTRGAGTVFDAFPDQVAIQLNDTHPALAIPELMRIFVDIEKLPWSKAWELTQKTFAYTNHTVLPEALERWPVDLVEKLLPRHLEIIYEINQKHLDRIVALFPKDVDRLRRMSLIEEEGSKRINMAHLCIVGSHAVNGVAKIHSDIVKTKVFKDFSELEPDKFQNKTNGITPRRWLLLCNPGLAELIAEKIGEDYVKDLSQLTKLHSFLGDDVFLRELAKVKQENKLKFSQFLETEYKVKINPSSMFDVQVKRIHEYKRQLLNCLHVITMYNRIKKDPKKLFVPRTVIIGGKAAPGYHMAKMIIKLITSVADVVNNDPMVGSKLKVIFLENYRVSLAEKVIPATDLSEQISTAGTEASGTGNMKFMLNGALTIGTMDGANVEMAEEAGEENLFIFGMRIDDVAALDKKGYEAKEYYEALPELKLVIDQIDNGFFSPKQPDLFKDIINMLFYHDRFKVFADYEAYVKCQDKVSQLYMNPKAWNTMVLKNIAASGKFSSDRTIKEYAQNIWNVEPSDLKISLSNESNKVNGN
Experiment: Glycogen phosphorylase a activity test (reverse direction, release of inorganic phosphate)
Format: biochemical
Details: 10 μM concentration of the test substance; in vitro, duplicate determinations
Procedure: Glycogen Phosphorylase a Activity Test
The effect of compounds on the activity of the active form of glycogen phosphorylase (GPa) was measured in the reverse direction by monitoring the synthesis of glycogen from glucose 1-phosphate by determining the release of inorganic phosphate. All the reactions were carried out as duplicate determinations in 96-well microtiter plates (Half Area Plates, Costar No. 3696), with the change in absorption due to the formation of the reaction product being measured, at the wavelength specified below, in a Multiscan Ascent Elisa Reader (Lab Systems, Finland). In order to measure the enzymic activity of GPa in the reverse direction, the conversion of glucose 1-phosphate into glycogen and inorganic phosphate was measured in accordance with the general method of Engers et al. (Engers H D, Shechosky S, Madsen N B, Can J Biochem 1970 July;48(7): 746–754) but with the following modifications: Human glycogen phosphorylase a (for example containing 0.76 mg of protein/ml (Aventis Pharma Deutschland GmbH), dissolved in buffer solution E (25 mM β-glycerophosphate, pH 7.0, 1 mM EDTA and 1 mM dithiothreitol), was diluted with buffer T (50 mM Hepes, pH 7.0, 100 mM KCl, 2.5 mM EDTA, 2.5 mM MgCl2.6H2O), and addition of 5 mg of glycogen/ml, to a concentration of 10 μg of protein/ml. Test substances were prepared as a 10 mM solution in DMSO and diluted down to 50 μM with buffer solution T. 10 μl of 37.5 mM glucose, dissolved in buffer solution T and 5 mg/ml of glycogen, and also 10 μl of a solution of human glycogen phosphorylase a (10 μg of protein/ml) and 20 μl of glucose 1-phosphate, 2.5 mM, were added to […] of the solution. The basal value of the activity of the glycogen phosphorylase a in the absence of test substance was determined by adding 10 μl of buffer solution T (0.1% DMSO). The mixture was incubated at room temperature for 40 minutes and the inorganic phosphate which was released was measured using the general method of Drueckes et al. (Drueckes P, Schinzel R, Palm D, Anal Biochem 1995 Sep. 1;230(1):173–177) but with the following modifications: 50 μl of a stop solution of 7.3 mM ammonium molybdate, 10.9 mM zinc acetate, 3.6% ascorbic acid, 0.9% SDS are added to 50 μl of the enzyme mixture. After 60 minutes of incubation at 45° C., the absorption was measured at 820 nm. In order to determine the background absorption, the stop solution was added immediately after adding the glucose 1-phosphate solution in a separate assay. This test was carried out using a 10 μM concentration of the test substance in order to determine the respective inhibition of glycogen phosphorylase a by the test substance in vitro.

Row | inhibition at 10 µM [%] | SMILES
1 | 91 | COC(=O)C=Cc1cc(C(=O)OC)ccc1NC(=O)NC(=O)c1cc(F)c(F)cc1Cl [Example 11, Methyl 4-[3-(2-chloro-4,5-difluorobenzoyl)ureido]-3-(2-methoxycarbonylvinyl)benzoate]
2 | 95 | CC(=O)Nc1ccc(C=CC(=O)O)c(NC(=O)NC(=O)c2cc(F)c(F)cc2Cl)c1 [Example 3, 3-{4-Acetylamino-2-[3-(2-chloro-4,5-difluorobenzoyl)ureido]phenyl}acrylic acid]
3 | 96 | COC(=O)C=Cc1cc(C(=O)O)ccc1NC(=O)NC(=O)c1cc(F)c(F)cc1Cl [Example 7, 4-[3-(2-chloro-4,5-difluorobenzoyl)ureido]-3-(2-methoxycarbonylvinyl)benzoic acid]
4 | 101 | O=C(O)C=Cc1ccccc1NC(=O)NC(=O)c1cc(F)c(F)cc1Cl [Example 2, 3-{2-[3-(2-chloro-4,5-difluorobenzoyl)ureido]phenyl}acrylic acid]
